Structures can show the parent of a compound that is named as a salt.

For the first assay, the target named is T1, human farnesyl transferase (Homo sapiens, UniProt P49354+P49356).
T1 construct: human farnesyl transferase purified from THP1 cell cultures; endogenous in cells; host or cells: THP1 cell cultures (enzyme purified from the cells)
The assay is described as follows: inhibition of farnesyl transferase ((3H) farnesyl transfer from (3H) FPP to p21 H-ras). It is filed as biochemical.
Settings: not given
The protocol:
Farnesyl transferase activity is determined by the amount of (^3 H) farnesyl transferred from (^3 H) farnesylpyrophosphate [(^3 H) FPP] to the p21 H-ras protein. The standard reaction mixture is composed, for a final volume of […], of 50 mM Tris-HCl, 5 mM MgCl2, 5 mM dithiotreitol, 0.2% octyl b-D-glucopyranoside, 200 picomol p21 H-ras, 4.5 picomol (^3 H) FPP (activity 61000 dpm/picomol).
Reaction is initiated by adding approximately 5 ng of human farnesyl transferase purified from THP1 cell cultures. After incubation for 20 minutes at 37° C. in a microtitration plate containing 96 1-cm^3 wells per plate (Titer Plate®, Beckman), the reaction is stopped by adding 0.4 cm^3 of 0.1% SDS in methanol at 0° C. The mixture is then treated with 0.4 cm^3 of 30% trichloroacetic® acid (TCA) in methanol. The plates are left in ice for 1 hour. The precipitated contents are then retained on Filtermat®, Pharmacia), glass® fibre membranes with the filtration unit (Combi Cell Harvester®, Skatron), and rinsed with 6% trichloroacetic acid in distilled water. The membranes are dried in a microwave oven, then impregnated with scintillation medium by melting of Meltilex® (Pharmacia) under hot air, and lastly counted in cpm in a b-Plate counter® (LKB). Each test is repeated 3 times.
The unit of activity is defined as 1 picomole of (^3 H) FPP transferred to p21 H-ras in 20 minutes.
The percentage inhibition values are obtained by comparison of the tests with and without inhibitor after deduction of blanks, the IC50 values being measured on the basis of the inhibitions obtained with 9 different concentrations using Enzfitter® or Grafit® software.
`O=C(Cc1ccccc1F)N1C[C@@H]2[C@]3(c4ccccc4)CC[C@@H](c4ccccc43)[C@]2(C(=O)O)C1` (relative stereo) [Example 63, (3aRS,4SR,9SR,9aRS)-4,9-Ethano-2-(2-fluorophenyl)acetyl-9-phenyl-2,3,3a,4,9,9a-hexahydro-1H-benzo[f]isoindole-3a-carboxylic acid] registered an IC50 of 7000 nM.
The compound `CSc1ccccc1CC(=O)N1C[C@H]2[C@@]3(c4ccccc4)CC[C@H](c4ccccc43)[C@@]2(C(=O)O)C1` (relative stereo) [Example 30] displayed an IC50 of 600 nM.
Same read-out and setting: next, `O=C(Cc1ccccc1Br)N1C[C@H]2[C@@]3(c4ccccc4)CC[C@H](c4ccccc43)[C@@]2(C(=O)O)C1` (relative stereo) [Example 28, (3aRS, 4SR, 9SR, 9aRS)-4,9-ethano-2-(2-bromophenyl)acetyl-9-phenyl-2,3,3a,4,9,9a-hexahydro-1H-benzo[f]isoindole-3a-carboxylic acid]: 3050 nM; `COc1ccccc1CC(=O)N1C[C@H]2[C@@]3(c4ccccc4)CC[C@H](c4ccccc43)[C@@]2(C(=O)O)C1` [Example 47, 4,9-ethano-2-[(2-methoxyphenyl)acetyl]-9-phenyl-2,3,3a(S),4(R),9(R),9a(S)-hexahydro-1H-benzo[f]isoindole-3a-carboxylic acid]: 140 nM.

The assay is the same for the next values; noted with them: human farnesyl transferase purified from THP1 cell cultures; p21 H-ras substrate; 20 minutes at 37° C.; 9 concentrations; read-out: in vitro inhibitory activity IC50.
Regarding `COc1ccccc1CC(=O)N1C[C@H]2[C@@]3(c4ccccc4)CC[C@H](c4ccccc43)[C@@]2(C[n+]2ccccc2)C1` (relative stereo) [Example 18, N-[(3aRS, 4SR, 9SR, 9aRS)-4,9-ethano-2-(2-methoxyphenyl)acetyl-9-phenyl-2,3,3a,4,9,9a-hexahydro-1H-benzo[f]isoindolyl-3a-methyl]pyridinium trifluoromethanesulphonate], the IC50 came out at 10000 nM.
Still for that read-out and setting: the same measure for `COc1cccc(CC(=O)N2C[C@@H]3[C@]4(c5ccccc5)CC[C@@H](c5ccccc54)[C@]3(C(=O)O)C2)c1OC` (relative stereo) [Example 36, (3aRS, 4SR, 9SR, 9aRS)-4,9-ethano-2-(2,3-dimethoxyphenyl)acetyl-9-phenyl-2,3,3a,4,9,9a-hexahydro-1H-benzo[f]isoindole-3a-carboxylic acid]: 3700 nM; for `C=C(C(=O)N1C[C@H]2[C@@]3(c4ccccc4)CC[C@H](c4ccccc43)[C@@]2(C(=O)NC(C)(C)c2ccccc2)C1)c1ccccc1OC` [Example 86, (3aS,4R,9R,9aS)-N-(2,2-dimethylbenzyl)-4,9-ethano-2[-(2-methoxyphenyl)prop-2-en-1-oyl]-9-phenyl-2,3,3a,4,9,9a-hexahydro-1H-benzo[f]isoindole-3a-carboxamide]: 4850 nM.
Still for that read-out and setting: next, `COc1ccccc1CC(=O)N1C[C@H]2[C@@]3(c4ccccc4)CC[C@H](c4ccccc43)[C@@]2(CC(C(=O)O)C(=O)O)C1` (relative stereo) [Example 24, 2-{(3aRS, 4SR, 9SR, 9aRS)-4,9-ethano-[(2-methoxyphenyl)acetyl]-9-phenyl-1,2,3,3a,9,9a-hexahydro-1H-benzo[f]isoindole-3a-}-methylmalonic acid]: 4200 nM; `CC(C)Oc1ccccc1CC(=O)N1C[C@@H]2[C@]3(c4ccccc4)CC[C@@H](c4ccccc43)[C@]2(C(=O)O)C1` (relative stereo) [Example 40, (3aRS,4SR,9SR,9aRS)-4,9-ethano-2-(2-isopropyl-oxyphenyl)acetyl-9-phenyl-2,3,3a,4,9,9a-hexahydro-1H-benzo[f]isoindole-3a-carboxylic acid]: 2950 nM; `COc1ccccc1CC(=O)N1C[C@H]2[C@@]3(c4ccccc4)CC[C@H](c4ccccc43)[C@@]2(C(=O)NC(Cc2c[nH]cn2)C(=O)O)C1` (stereo partly drawn) [Example 8, hydrochloride of N-[(3aRS, 4SR, 9SR, 9aRS)-4,9-ethano-2-(2-methoxyphenyl)acetyl-9-phenyl-2,3,3a,4,9,9a-hexahydro-1H-benzo[f]isoindolyl-3a-carbonyl]histidine]: 190 nM.
On to `O=C(Cc1c[nH]c2ccc(Br)cc12)N1C[C@@H]2[C@]3(c4ccccc4)CC[C@@H](c4ccccc43)[C@]2(C(=O)O)C1` (relative stereo) [Example 35, (3aRS, 4SR, 9SR, 9aRS)-4,9-ethano-2-(5-bromo-3-indolyl)acetyl-9-phenyl-2,3,3a,4,9,9a-hexahydro-1H-benzo [f]isoindole-3a-carboxylic acid], for which the IC50 worked out at 2150 nM.
Same read-out and setting: next, `COc1ccccc1CC(=O)N1CC2C3(c4ccccc4)CCC(c4ccccc43)C2(C(=O)N[C@@H](CS)C(=O)O)C1` (stereo partly drawn) [Example 53, N-[(3aRS,4SR,9SR,9aRS)-4,9-ethano-2-(2-methoxyphenyl)acetyl-9-phenyl-2,3,3a,4,9,9a-hexahydro-1H-benzo[f]isoindol-3a-yl]carbonyl-L-cysteine]: 590 nM.
Take `COc1ccccc1CC(=O)N1C[C@@H]2[C@]3(c4ccccc4)CC[C@@H](c4ccccc43)[C@]2(C(=O)NO)C1` (racemic) [Example 46, (3aRS,4SR,9SR,9aRS)-4,9-ethano-2-(2-methoxyphenylacetyl)-9-phenyl-2,3,3a,4,9,9a-hexahydro-1H-benzo[f]isoindole-3a-carbohydroxamic acid]: the IC50 turned out to be 1250 nM.
Still for that read-out and setting: next, `COc1ccccc1CC(=O)N1C[C@H]2[C@@]3(c4ccccc4)CC[C@H](c4ccccc43)[C@@]2(C(=O)NCC(=O)O)C1` [Example 48, N-[4,9-ethano-2-(2-methoxyphenyl)acetyl-9-phenyl-2,3,3a(S),4(R),9(R),9a(S)-hexahydro-1H-benzo[f]isoindol-3a-yl]carbonylglycine]: 740 nM; `COc1ccccc1CC(=O)N1C[C@H]2[C@@]3(c4ccccc4)CC[C@H](c4ccccc43)[C@@]2(CSCCC(=O)O)C1` (relative stereo) [Example 26, 3-[(3aRS, 4SR, 9SR, 9aRS)-4,9-ethano-2-(2-methoxyphenyl)acetyl-9-phenyl-2,3,3a,4,9,9a-hexahydro-1H-benzo[f]isoindol-3a-yl]methylthiopropanoic acid]: 2300 nM; `COc1ccccc1CC(=O)N1C[C@H]2[C@@]3(c4ccccc4)CC[C@H](c4ccccc43)[C@@]2(NC(=O)CC(=O)O)C1` (relative stereo) [Example 16, (3aRS, 4SR, 9SR, 9aRS)-4,9-ethano-3a-carboxylacetylamino-2-(2-methoxyphenyl)acetyl-9-phenyl-2,3,3a,4,9,9a-hexahydro-1H-benzo[f]isoindole]: 3030 nM.
Consider `COc1ccccc1CC(=O)N1CC2C3(c4ccccc4)CCC(c4ccccc43)C2(C(=O)N[C@@H](CSCc2ccccc2)C(=O)O)C1` (stereo partly drawn) [Example 52, N-[(3aRS,4SR,9SR,9aRS)-4,9-ethano-2-(2-methoxyphenyl)acetyl-9-phenyl-2,3,3a,4,9,9a-hexahydro-1H-benzo[f]isoindol-3a-yl]carbonyl-S-benzyl-L-cysteine], for which the IC50 was found to be 440 nM.
For `COc1ccccc1CC(=O)N1C[C@H]2[C@@]3(c4ccccc4)CC[C@H](c4ccccc43)[C@@]2(C(=O)N[C@H](C)c2ccccc2)C1` [Example 57, N-[(R)-1-phenylethyl]-4,9-ethano-2-(2-methoxyphenyl)acetyl-9-phenyl-2,3,3a(S),4(R),9(R),9a(S)-hexahydro-1H-benzo[f]isoindole-3a-carboxamide], the IC50 turned out to be 860 nM.

The IC50 is the concentration needed to halve the response being measured.

These data come from patent US5936097A, “4,9-ethano-benzo(F)isoindole derivatives as farnesyl transferase inhibitors” (Rhone-Poulenc Rorer, S.A., priority 1995, dated 1999).
